Assay results: US20260183297A1, “SELECTION OF PATIENTS FOR THE TREATMENT OF FADS1-MEDIATED DISEASES OR DISORDERS USING FADS-1 INHIBITORS” (AMGEN INC., priority 2022, published 2026)

Tests used:
[1] = Biomarker analysis of tissue and plasma samples (Luminex: adiponectin, leptin, PAI-1, MCP-1); format: in vivo, mouse; settings: DIO mice, 30 mg/kg
Experimental: Frozen liver and adipose tissue samples were powdered with stainless steel Bessman Tissue Pulverizers (Spectrum Laboratory Products, Gardena, CA) per the manufacturer's instructions and the resulting tissue powders were stored in cryotubes at −80° C. until extraction. A portion of each powdered tissue sample was extracted using an in-house protein extraction buffer (50-mM Tris buffer, pH 7.4, 0.1 M NaCl and 0.1% Triton X-100) containing a protease inhibitor cocktail (Millipore Sigma, Burlington, MA). Samples were homogenized with a MagNA Lyser (Roche Diagnostics, Indianapolis, IN) for 30 seconds at 6500 rpm, placed at 4° C. for 30 minutes and then spun in a refrigerated microcentrifuge at 10,000 rpm for 10 minutes. The resulting supernatants were removed to clean 1.5 ml microfuge tubes and spun again at 14,000 rpm for 15 minutes. The final supernatants were aliquoted into labeled cluster tubes and protein concentrations were determined using a standard BCA Protein Assay (Thermo Fisher Scientific, Waltham, MA) prior to storage at −80° C.
Separate aliquots of tissue protein extracts and terminal plasma samples were used to quantify levels of various analytes. Multiple adipokines and hormones (MCP-1, leptin, insulin, and PAI-1) were assessed using a multiplex mouse-specific Luminex assay while adiponectin was evaluated using a single-plex mouse-specific Luminex assay (Millipore Sigma, Burlington, MA). All the commercial assays were performed per the manufacturer's instructions. Data were acquired on a FlexMap 3D (Luminex Corporation, Austin. TX). Tissue protein expression levels were normalized per mg of total protein.

FADS1 = target: T1, FADS1 (Mus musculus, UniProt Q920L1); assay: In vivo FADS1 activity measurement using blood plasma (13C5-DGLA to 13C5-AA conversion); settings: DIO mice, 24 hours after dosing
T1 construct: Liver from ^13C5-DGLA dosed DIO mice was collected for pharmacodynamic (PD) analysis; from tissue; host or cells: living DIO C57Bl/6 mice; 13C5-DGLA to 13C5-AA conversion read in liver (A4) or blood plasma (A5)
T1 sequence (Q920L1 1-447): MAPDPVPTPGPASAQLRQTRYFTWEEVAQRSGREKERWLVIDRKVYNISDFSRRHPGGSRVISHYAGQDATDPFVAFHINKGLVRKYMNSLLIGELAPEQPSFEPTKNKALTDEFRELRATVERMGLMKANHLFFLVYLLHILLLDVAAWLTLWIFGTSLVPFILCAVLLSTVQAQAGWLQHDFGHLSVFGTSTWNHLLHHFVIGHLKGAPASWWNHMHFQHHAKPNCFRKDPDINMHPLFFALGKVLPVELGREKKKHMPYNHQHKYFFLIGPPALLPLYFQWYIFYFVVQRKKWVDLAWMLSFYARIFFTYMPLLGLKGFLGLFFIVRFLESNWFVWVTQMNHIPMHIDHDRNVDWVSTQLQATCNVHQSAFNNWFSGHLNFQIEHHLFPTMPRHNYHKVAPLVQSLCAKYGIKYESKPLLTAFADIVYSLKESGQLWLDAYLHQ
Experimental: FADS1 activity in the presence of Compounds B-E was also measured using blood plasma (in addition to using the liver). The above procedures were perforned to measure the in vivo activity of FADS1 using the liver. The following general procedures were used to measure FADS1 activity using blood plasma. Diet-induced obese (DIO) mice that were on 12 weeks of high fat diet were used to determine the pharmacokinetic (PK) and pharmacodynamic (PD) properties of test compounds. To determine the target coverage at 24 hours after dosing with a test compound (e.g., Compounds B-E, shown below), mice were IP dosed with 0.1 ml solution of ^13C5-DGLA (2 mM in 18.42 mM Na2CO3 buffer). Necropsy were performed at 30 minutes post ^13C5-DGLA dosing. EDTA Plasma was collected for PK and PD analysis.
For PD analysis, 50 μl of plasma or standards (pooled untreated mouse plasma with ^13C5-DGLA and ^13C5-AA added at concentration of 4.57 nM to 10 uM) were mixed with 10 μl of 90% methanol and 10 μl of 50 μg/mL of ALA-D14 as an internal standard (100 μM alpha-linolenic acid-d14 (ALA-d14, Cayman Chemical)) in a 96 well plate. 490 μl of chloroform:methanol (2:1) were added to each well. Plates were plated on a shaker for 5 min prior to adding 66.5 μl water. The plates were shaken for another 5 minutes, followed by centrifugation at 2000 RPM for 5 minutes. The bottom organic layer was transferred to a clean 96 well plate. 333 ul of chloroform:methanol (2:1) were added to the to the remaining liquid phase in the original plate. After 5 min of shaking, the plate was centrifuged at 2000 RPM for 5 minutes. The bottom layer was collected and combined with the first bottom layer. The combined layers were evaporated to dryness under a constant stream of nitrogen gas. After the plate has been dried, 100 μl of 2N NaOH was added to the mixture for subsequent saponification at 65° C. for 1 hour. The samples were then cooled to room temperature and the mixture was then acidified with 50 μl of formic acid followed by two consecutive chloroform:methanol (2:1) extractions. 500 μl of Chloroform:methanol (2:1) was added and the mixture thoroughly mixed by shaking. The plate was then centrifuged at 2,000 rpm for 5 min. The bottom chloroform phase was transferred to a new 2 mL 96 well plate and the remaining aqueous layer was extracted with another 250 μl of chloroform:methanol (2:1). The organic extracts were combined, and the solvent was evaporated to dryness by placing the plate under nitrogen. Extracts were then dissolved in 200 μl of acetonitrile/methanol (1:1). The plate was placed on a shaker for 30 minutes to ensure thorough mixing and dissolution of the extracted fatty acids. The plate was then centrifuged at 2000 RPM for 5 minutes. 80 μl of the samples were transferred to a new 96 well polypropylene plate for analysis on a LC-MS/MS for the following analytes: ^13C5-DGLA, ^13C5-AA, with ALA-d14 as the internal standard. Briefly describing the LC-MS/MS method: 20 μl of sample was injected onto a Poroshell 120 EC-C18 3.0×50 mm, 1.9 μm id column. Mobile phases were 80% acetonitrile containing 5 mM ammonium acetate for mobile phase A and 99.5% acetonitrile containing 5 mM ammonium acetate for mobile phase B. The LC gradient was a 3 min long method at a flow rate of 0.4 mL/minute consisting of 45% B at 0 to 0.5 min, followed by a 45% B to 100% B from 0.5 to 2.0 min; the system was then maintained at 100% B from 2.0 min to 2.5 min and returned to 45% B at 2.6 min and maintained until end of the method. The analyte peak areas were quantified by using the SCIEX Analyst software. To determine the degree of FADS1 inhibition, the in vivo FADS1 activity, POC, percent of inhibition, and in vivo IC50 values are calculated as described above for liver FADS1 activity measurement.

[2] = mouse, single oral dose 10 mg/kg
[3] = mouse, single oral dose 30 mg/kg

| Plasma Avg % Conversion (FADS1; single oral dose 10 mg/kg) [%] | Plasma Avg % Conversion (FADS1; single oral dose 30 mg/kg) [%] | Plasma Avg % Conversion (FADS1; single oral dose 50 mg/kg) [%] | inhibition at 10 mg/kg (FADS1; [2]) [%] | inhibition at 30 mg/kg (FADS1; [3]) [%] | inhibition at 50 mg/kg (FADS1; mouse, single oral dose 50 mg/kg) [%] | Plasma Avg % Conversion (FADS1; single oral dose 3 mg/kg) [%] | inhibition at 3 mg/kg (FADS1; mouse, single oral dose 3 mg/kg) [%] | SMILES | adiponectin levels ([1]; EPI WAT) | MCP-1 levels ([1]; EPI and ING WAT) | PAI-1 levels ([1]; EPI and ING WAT) | leptin levels ([1]; plasma, EPI and ING WAT) |
| --- | --- | --- | --- | --- | --- | --- | --- | --- | --- | --- | --- | --- |
|  |  |  |  |  |  |  |  | COc1ccn2c(=O)c(-c3cnn(CC(F)(F)C(F)(F)F)c3)c(C(F)(F)F)nc2c1 [Compound A, 8-methoxy-3-(1-(2,2,3,3,3-pentafluoropropyl)-1H-pyrazol-4-yl)-2-(trifluoromethyl)-4H-pyrido[1,2-a]pyrimidin-4-one] | elevated | trends towards lower | trends towards lower | decreased |
| 2.9 | 2.2 | 1.9 | 95.2 | 96.3 | 96.9 |  |  | COc1ccn2c(=O)c(-c3cnn(CC(F)(F)C(F)(F)F)c3)c(C(F)(F)F)nc2n1 [Compound B] |  |  |  |  |
| 4.3 | 1.7 |  | 92.8 | 97.1 |  | 10.1 | 83.3 | N#Cc1ccn2c(=O)c(-c3cnn(CC(F)(F)C(F)(F)F)c3)c(C(F)(F)F)nc2c1 [Compound C] |  |  |  |  |
